Experimental data taken from the supplement of paper PMC10307832.

Key:
Assay in all cases: relative viability (nuclei count vs DMSO), 5 days (fraction); higher = more cells survive
Sulindac = compound: CC1=C(CC(=O)O)c2cc(F)ccc2/C1=C\c1ccc([S+](C)[O-])cc1 [Sulindac]
Procedure, shortened: (§1)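 A plate was accepted only when its control CV was below 25% and the cells had doubled at least once. Viability is defined from nuclear counts as treated wells divided by vehicle wells, with the median taken across plates. That median covers lung cancer cell lines grown in 1536-well plates, dosed by pinning at five √10-spaced library-drug concentrations, and counted in MetaXpress from 4× Hoechst images after 5 days.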

Staurosporine = compound: CN[C@@H]1C[C@H]2O[C@@](C)([C@@H]1OC)n1c3ccccc3c3c4c(c5c6ccccc6n2c5c31)C(=O)NC4 [Staurosporine]
Procedure, shortened: as §1

5-Fluorouracil = compound: O=c1[nH]cc(F)c(=O)[nH]1 [5-Fluorouracil]
Procedure, shortened: as §1

Cell Line | relative viability (Sulindac; 0.08 µM) | relative viability (Sulindac; 0.253 µM) | relative viability (Sulindac; 0.8 µM) | relative viability (Sulindac; 2.53 µM) | relative viability (Sulindac; 8 µM) | relative viability (Staurosporine; 0.005 µM) | relative viability (Staurosporine; 0.01581 µM) | relative viability (Staurosporine; 0.05 µM) | relative viability (Staurosporine; 0.1581 µM) | relative viability (Staurosporine; 0.5 µM) | relative viability (5-Fluorouracil; 0.02 µM) | relative viability (5-Fluorouracil; 0.2 µM) | relative viability (5-Fluorouracil; 0.6325 µM) | relative viability (5-Fluorouracil; 2 µM)
NCI-H1666 | 0.906 | 0.978 | 0.886 | 0.982 | 1.08 | 0.7 | 0.68 | 0.557 | 0.484 | 0.373 | 1.04 | 0.683 | 0.503 | 0.479
LOU-NH91 | 0.989 | 0.982 | 0.944 | 0.922 | 1.11 | 0.921 | 0.603 | 0.613 | 0.294 | 0.275 | 0.99 | 1.1 | 0.734 | 0.39
LXF-289 | 1.11 | 1.05 | 0.994 | 1.02 | 1.08 | 1.02 | 0.652 | 0.477 | 0.0851 | 0.127 | 0.961 | 0.912 | 0.434 | 0.301
NCI-H1299 | 1.13 | 1.09 | 0.908 | 1.05 | 1.08 | 0.815 | 0.491 | 0.284 | 0.207 | 0.137 | 1.1 | 1.05 | 0.955 | 0.703
HARA | 1.1 | 1.01 | 0.899 | 0.979 | 1.11 | 0.696 | 0.387 | 0.36 | 0.219 | 0.108 | 1.03 | 1.33 | 1 | 0.573
LU99A | 1.02 | 0.982 | 0.922 | 0.845 | 1.09 | 0.912 | 0.569 | 0.422 | 0.211 | 0.131 | 0.943 | 0.999 | 0.845 | 0.624
201T | 1.02 | 1 | 1 | 0.977 | 1.09 | 0.968 | 0.564 | 0.854 | 0.563 | 0.279 | 0.997 | 0.774 | 0.345 | 0.335
HCC-827 | 0.99 | 1.09 | 0.97 | 0.957 | 1.09 | 1.03 | 0.701 | 0.723 | 0.48 | 0.36 | 0.855 | 1.01 | 0.667 | 0.469
NCI-H1703 | 1.11 | 1 | 0.915 | 0.917 | 1.26 | 0.512 | 0.291 | 0.186 | 0.161 | 0.112 | 1.17 | 0.999 | 0.848 | 0.562
NCI-H1975 | 1.09 | 0.969 | 0.795 | 0.998 | 1.07 | 0.475 | 0.365 | 0.258 | 0.159 | 0.136 | 0.968 | 1.07 | 0.566 | 0.343
NCI-H2023 | 1.39 | 1.05 | 0.744 | 1.01 | 1.13 | 0.471 | 0.289 | 0.178 | 0.0889 | 0.0533 | 0.849 | 0.227 | 0.133 | 0.0914
ChaGo-K-1 | 1.09 | 1.02 | 0.863 | 1.03 | 1.12 | 1.03 | – | 0.871 | 0.307 | 0.228 | 1.01 | 0.964 | 0.766 | 0.612
